In patent publication US12310945B2, “Cyclohexylglycine derivatives as selective cytotoxic agents” (Merck Sharp & Dohme LLC, priority 2022, dated 2025):
pEC50: −log10 of the molar value.

What follows are compounds tested on PBMCs infected with VSV-G pseudotyped HIV virus stock (VSV-G/pNLG1-P2A-AEnv) (assay: cells). Conditions: Human immunodeficiency virus 1, PBMC, read-out: TACK EC50.
Format: cell-based

Row | Compound | pEC50
1 | N#C[C@@H]1C[C@H](F)CN1C(=O)[C@@H](N)C1CCCCC1 [Example 4] | 6.50
2 | N[C@H](C(=O)N1Cc2ccccc2C1)[C@H]1CC[C@@H](O)CC1 [Example 2] | 5.19
3 | N[C@H](C(=O)N1Cc2ccccc2C1)[C@H]1CC[C@H](N2CCCC2)CC1 [Example 1, (2S)-2-amino-1-(1,3-dihydroisoindol-2-yl)-2-[(1R,4S)-4-(pyrrolidin-1-yl)cyclohexyl]ethanone] | 6.68
4 | C#CCOCCO[C@H]1CCN(C2CCC([C@H](N)C(=O)N3Cc4ccccc4C3)CC2)C1 (stereo partly drawn) [Example 5] | 6.27
5 | C#CCO[C@H]1CCN(C2CCC([C@H](N)C(=O)N3Cc4ccccc4C3)CC2)C1 (stereo partly drawn) [Example 6] | 6.64
6 | N[C@H](C(=O)N1Cc2ccccc2C1)C1CCCCC1 [Example 3] | 5.85
